# Data from patent publication US20240165144A1, “COMPOSITIONS AND METHODS FOR MODULATING INNATE IMMUNE SIGNALING PATHWAYS” (Dana-Farber Cancer Institute, Inc., priority 2019, published 2024).
# System: cGAS-STING signaling
# Experiment: interferon reporter assay with transfected polar cell extracts
# Format: cell-based
# Settings: iterative HPLC purification on 3 columns; single peak at retention time 24.5 minutes; FIG. 3
# Text: FIG. 1A-FIG. 1B—FIG. 1A cGAS is an innate immune signaling enzyme that generates cyclic GMP-AMP in response to cytosolic DNA, image adapted from (7); FIG. 1B.
# Applicants then transfected these extracts into the assay that was used to measure the effects of MB21D2 expression on interferon signaling (FIG. 1B workflow at top).
compound,measurement,value
"Nc1ncnc2c1ncn2[C@@H]1O[C@H](CO)[C@@H](O)[C@H]1OP(=O)([O-])OP(=O)([O-])OP(=O)([O-])[O-].[Na+].[Na+].[Na+].[Na+] [2′-ATP, Adenosine 2′-Triphosphate, Sodium Salt]",anti-STING activity of HPLC-purified fraction,anti-STING activity was localized to a single peak
